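Where inhibition never reached the appropriate level, the endpoint shown equals the highest concentration tested. Otherwise, values were interpolated linearly from a five-concentration, 48-hour dose response in 96-well plates. The concentration for 50% growth inhibition is given as GI50.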 The source made the active and inactive calls. Cut-off read from the data, not from the text of the source: active = GI50 up to about 1.1 µM and inactive = higher.
Legend:
Assay in all cases: inhibition of tumour cell growth, NCI panel, 48 h
SK-MEL-2 = tested on: SK-MEL-2
RPMI-8226 = tested on: RPMI-8226
HOP-92 = tested on: HOP-92
CAKI-1 = tested on: CAKI-1
OVCAR-8 = tested on: OVCAR-8
UACC-257 = tested on: UACC-257
CCRF-CEM = tested on: CCRF-CEM
HT-29 = tested on: HT-29
Malme-3M = tested on: Malme-3M
UACC-62 = tested on: UACC-62
M14 = tested on: M14
SN12C = tested on: SN12C
K562 = tested on: K562
OVCAR-5 = tested on: OVCAR-5
HCT-15 = tested on: HCT-15
HCT-116 = tested on: HCT-116
SF-539 = tested on: SF-539
NCI-H23 = tested on: NCI-H23
SNB-19 = tested on: SNB-19

| SMILES | GI50 (SK-MEL-2) | GI50 (RPMI-8226) | GI50 (HOP-92) | GI50 (CAKI-1) | GI50 (OVCAR-8) | GI50 (UACC-257) | GI50 (CCRF-CEM) | GI50 (HT-29) | GI50 (Malme-3M) | GI50 (UACC-62) | GI50 (M14) | GI50 (SN12C) | GI50 (K562) | GI50 (OVCAR-5) | GI50 (HCT-15) [µM] | GI50 (HCT-116) | GI50 (SF-539) | GI50 (NCI-H23) | GI50 (SNB-19) |
| --- | --- | --- | --- | --- | --- | --- | --- | --- | --- | --- | --- | --- | --- | --- | --- | --- | --- | --- | --- |
| O=c1nc(NC2CCCCO2)ccn1CCO (stereo unspecified) | > 100 µM (inactive) | > 100 µM (inactive) | > 100 µM (inactive) | > 100 µM (inactive) | > 100 µM (inactive) | > 100 µM (inactive) | > 100 µM (inactive) | > 100 µM (inactive) | > 100 µM (inactive) | > 100 µM (inactive) | > 100 µM (inactive) | > 100 µM (inactive) | > 100 µM (inactive) | > 100 µM (inactive) | > 100 | > 100 µM (inactive) | > 100 µM (inactive) | – | – |
| CCn1c(C)nn2c(=O)c3ccccc3nc2c1=O | > 100 µM (inactive) | > 100 µM (inactive) | 59.7 µM (inactive) | > 100 µM (inactive) | > 100 µM (inactive) | > 100 µM (inactive) | > 100 µM (inactive) | > 100 µM (inactive) | > 100 µM (inactive) | > 100 µM (inactive) | > 100 µM (inactive) | – | > 100 µM (inactive) | > 100 µM (inactive) | > 100 | > 100 µM (inactive) | > 100 µM (inactive) | > 100 µM (inactive) | – |
| N#Cc1ccccc1NC(=O)/C(=N\Nc1ccc([N+](=O)[O-])cc1)C1C(=O)NC(=O)NC1=O | > 100 µM (inactive) | > 100 µM (inactive) | 3.69 µM (inactive) | 31.4 µM (inactive) | > 100 µM (inactive) | > 100 µM (inactive) | > 100 µM (inactive) | – | > 100 µM (inactive) | > 100 µM (inactive) | > 100 µM (inactive) | – | > 100 µM (inactive) | > 100 µM (inactive) | > 100 | > 100 µM (inactive) | > 100 µM (inactive) | > 100 µM (inactive) | > 100 µM (inactive) |
| C=C(CN(C)C)C(=O)c1ccccc1C | > 100 µM (inactive) | 15.7 µM (inactive) | 17.7 µM (inactive) | 27.5 µM (inactive) | > 100 µM (inactive) | > 55.7 µM (inactive) | 7.85 µM (inactive) | > 100 µM (inactive) | 17.9 µM (inactive) | 28.2 µM (inactive) | 18.1 µM (inactive) | 46.9 µM (inactive) | 15.7 µM (inactive) | > 100 µM (inactive) | 24.9 | 24.8 µM (inactive) | > 40.4 µM (inactive) | > 100 µM (inactive) | > 100 µM (inactive) |
| OC(CC(O)(C(F)(F)F)C(F)(F)F)c1ccc(C(O)CC(O)(C(F)(F)F)C(F)(F)F)cc1 (stereo unspecified) | 22.3 µM (inactive) | 15.6 µM (inactive) | 13 µM (inactive) | 12.7 µM (inactive) | 15.9 µM (inactive) | 18.1 µM (inactive) | 16.8 µM (inactive) | 12.3 µM (inactive) | 14.2 µM (inactive) | 12.2 µM (inactive) | 15.9 µM (inactive) | – | 15.9 µM (inactive) | 17.1 µM (inactive) | 20.1 | 11.8 µM (inactive) | 15.7 µM (inactive) | 12.9 µM (inactive) | 17.1 µM (inactive) |
| CN1C(=O)C(C(=O)Nc2ccccn2)C2C[C@@]1(C)Oc1ccccc12 (stereo partly specified) | > 100 µM (inactive) | 56.1 µM (inactive) | > 100 µM (inactive) | > 100 µM (inactive) | > 100 µM (inactive) | > 100 µM (inactive) | > 100 µM (inactive) | > 100 µM (inactive) | > 100 µM (inactive) | 12 µM (inactive) | > 100 µM (inactive) | – | > 100 µM (inactive) | > 100 µM (inactive) | > 100 | > 100 µM (inactive) | – | > 100 µM (inactive) | > 100 µM (inactive) |
| CC(C)c1ccc(O)c(Cc2cc(C(C)C)cc(Cc3cc(C(C)C)ccc3O)c2O)c1 | 1.61 µM (inactive) | 2.08 µM (inactive) | 1.79 µM (inactive) | 1.53 µM (inactive) | 2.09 µM (inactive) | 1.71 µM (inactive) | 3.39 µM (inactive) | 2.25 µM (inactive) | 1.5 µM (inactive) | 2.38 µM (inactive) | 1.66 µM (inactive) | 1.77 µM (inactive) | 2.23 µM (inactive) | 1.75 µM (inactive) | 1.7 | 1.78 µM (inactive) | – | 1.7 µM (inactive) | 1.65 µM (inactive) |
| O=C(Nc1c(Cl)cc([N+](=O)[O-])cc1Cl)C(=O)C(C(=O)c1ccncc1)C1OC(=O)c2ccccc21 (stereo unspecified) | – | > 100 µM (inactive) | > 100 µM (inactive) | > 100 µM (inactive) | > 100 µM (inactive) | > 100 µM (inactive) | > 100 µM (inactive) | > 100 µM (inactive) | > 100 µM (inactive) | > 100 µM (inactive) | > 100 µM (inactive) | > 100 µM (inactive) | > 100 µM (inactive) | > 100 µM (inactive) | > 100 | > 100 µM (inactive) | – | > 100 µM (inactive) | > 100 µM (inactive) |
| COC(=O)c1ccccc1N(C(=O)c1ccccc1)c1ccccc1C | 45 µM (inactive) | – | – | 34.4 µM (inactive) | 37.5 µM (inactive) | 39.2 µM (inactive) | 27.3 µM (inactive) | 39.4 µM (inactive) | 36.3 µM (inactive) | 93.8 µM (inactive) | 24 µM (inactive) | > 100 µM (inactive) | 41.1 µM (inactive) | > 100 µM (inactive) | 38.5 | 56.8 µM (inactive) | – | 32.1 µM (inactive) | > 100 µM (inactive) |
| O=C(/C=C1\NC(=O)c2ccccc2N1)c1ccncc1 | > 100 µM (inactive) | > 100 µM (inactive) | – | > 100 µM (inactive) | > 100 µM (inactive) | > 100 µM (inactive) | > 100 µM (inactive) | > 100 µM (inactive) | > 100 µM (inactive) | > 100 µM (inactive) | > 100 µM (inactive) | > 100 µM (inactive) | > 100 µM (inactive) | > 100 µM (inactive) | > 100 | > 100 µM (inactive) | – | > 100 µM (inactive) | > 100 µM (inactive) |
| CC(CO)C1=CC(C#CCOCc2ccccc2)N(C(=O)Oc2ccccc2)c2ccccc21 (stereo unspecified) | 23.3 µM (inactive) | 13.1 µM (inactive) | 7.69 µM (inactive) | 18.7 µM (inactive) | 30.5 µM (inactive) | 13.2 µM (inactive) | 15 µM (inactive) | 18.6 µM (inactive) | – | 2.81 µM (inactive) | 17.1 µM (inactive) | 15.9 µM (inactive) | 8.26 µM (inactive) | 64.1 µM (inactive) | 5.04 | 14.8 µM (inactive) | 41 µM (inactive) | 8.89 µM (inactive) | 32.5 µM (inactive) |
| O=c1c2cc(Cl)ccc2sc2cccc(Cl)c12 | > 100 µM (inactive) | > 100 µM (inactive) | > 100 µM (inactive) | > 100 µM (inactive) | > 100 µM (inactive) | > 100 µM (inactive) | > 100 µM (inactive) | > 100 µM (inactive) | – | > 100 µM (inactive) | > 100 µM (inactive) | > 100 µM (inactive) | > 100 µM (inactive) | > 100 µM (inactive) | > 100 | > 100 µM (inactive) | > 100 µM (inactive) | > 100 µM (inactive) | > 100 µM (inactive) |
| c1ccc2c3c([nH]c2c1)C1C2CCCCN2C(c2ccncc2)N1CC3 (stereo unspecified) | 39.4 µM (inactive) | 27.4 µM (inactive) | – | 34.4 µM (inactive) | 38.1 µM (inactive) | 51.2 µM (inactive) | 33 µM (inactive) | 33.1 µM (inactive) | 34 µM (inactive) | 36.5 µM (inactive) | 34.8 µM (inactive) | 39.1 µM (inactive) | 32.1 µM (inactive) | 35.7 µM (inactive) | 35.5 | 35 µM (inactive) | 58.3 µM (inactive) | 34.4 µM (inactive) | 25.4 µM (inactive) |
| CC(C)C1=CC23CCC4C(C)(C(=O)O)CCCC4(C)C2CC1C(C(=O)O)C3C(=O)O (stereo unspecified) | > 100 µM (inactive) | – | > 100 µM (inactive) | > 100 µM (inactive) | > 100 µM (inactive) | – | > 100 µM (inactive) | > 100 µM (inactive) | > 100 µM (inactive) | > 100 µM (inactive) | > 100 µM (inactive) | > 100 µM (inactive) | > 100 µM (inactive) | > 100 µM (inactive) | > 100 | > 100 µM (inactive) | – | > 100 µM (inactive) | > 100 µM (inactive) |
| CCOC(=O)Nc1ccc(S(=O)(=O)OC)cc1.CCOC(=O)Nc1ccc(S(=O)(=O)OC)cc1.NNC(=O)c1ccncc1 | > 50 µM (inactive) | 14.6 µM (inactive) | > 50 µM (inactive) | > 50 µM (inactive) | > 50 µM (inactive) | > 50 µM (inactive) | 9.08 µM (inactive) | 44.7 µM (inactive) | > 50 µM (inactive) | > 50 µM (inactive) | > 50 µM (inactive) | > 50 µM (inactive) | 40.2 µM (inactive) | > 50 µM (inactive) | > 50 | 14.3 µM (inactive) | > 50 µM (inactive) | > 50 µM (inactive) | > 50 µM (inactive) |
| COC(=O)CC(C(C(=O)OC)C(=O)OC)N1C(=O)OCC1c1ccccc1 (stereo unspecified) | > 100 µM (inactive) | 58.6 µM (inactive) | > 100 µM (inactive) | > 100 µM (inactive) | > 100 µM (inactive) | > 100 µM (inactive) | > 100 µM (inactive) | > 100 µM (inactive) | > 100 µM (inactive) | > 100 µM (inactive) | > 100 µM (inactive) | > 100 µM (inactive) | > 100 µM (inactive) | > 100 µM (inactive) | > 100 | > 100 µM (inactive) | > 100 µM (inactive) | > 100 µM (inactive) | > 100 µM (inactive) |

From ChEMBL document CHEMBL1201862, “PubChem BioAssay data set” (2004)
